As usually defined, the EC50 is the midpoint of the concentration-response curve. As usually defined, the AC50 is the concentration at which the activity in the assay is half-maximal. As usually defined, the IC50 is the point on the concentration scale where inhibition reaches its midpoint. As a reminder, the CC50 is the concentration giving 50% cytotoxicity.

The nature of test [1]: Luminescence Cell-Based Dose Response HTS to Identify Inhibitors of 5'UTR Stem-Loop Driven Prion Protein mRNA Translation in H4 Neuroglioblastoma Cells. [Related pubchem assays: 1827 (Project Summary), 1813 (Primary HTS)]. The test is classed as functional.
Test [2] can be described thus: luciferase reporter signal suppression in cells – H4 neuroglioma cells, luminescence, dose response (AID 1990). Type of test: functional, cell-based.
Test [3] is described as follows: alpha-synuclein stem-loop luciferase translation blockers – H4 neuroglioma cells, luminescence, confirmation (AID 1988). The test is classed as functional, cell-based.
Test [4] has as its system Streptococcus sp. 'group A'. In words: Streptococcus pyogenes SK(-)GAS viability under kanamycin – luminescence, BacTiterGlo, confirmation, counter-screen for streptokinase expression inhibitor project, dose response (AID 1900). Type of test: functional, organism-based. A general note: A counterscreen serves to expose hits that act by an unwanted route or on another target.

The next test deals with T1, Streptokinase A (Streptococcus pyogenes serotype M1, UniProt P10520).
T1 sequence (P10520 whole entry): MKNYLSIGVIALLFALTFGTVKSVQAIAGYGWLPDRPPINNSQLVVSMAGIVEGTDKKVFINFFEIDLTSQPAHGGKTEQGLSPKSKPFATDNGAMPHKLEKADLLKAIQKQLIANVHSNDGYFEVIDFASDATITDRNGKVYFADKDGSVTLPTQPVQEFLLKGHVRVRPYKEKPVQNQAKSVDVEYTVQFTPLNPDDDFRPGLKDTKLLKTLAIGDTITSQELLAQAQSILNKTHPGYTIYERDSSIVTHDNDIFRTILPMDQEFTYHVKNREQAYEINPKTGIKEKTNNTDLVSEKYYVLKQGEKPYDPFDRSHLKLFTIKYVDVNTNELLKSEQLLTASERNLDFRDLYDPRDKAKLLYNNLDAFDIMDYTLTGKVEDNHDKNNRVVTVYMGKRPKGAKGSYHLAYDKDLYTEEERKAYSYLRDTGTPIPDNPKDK
The test can be described thus: viability-normalized secreted streptokinase activity reduction – plasminogen activation absorbance, OD405, dose response (AID 1914).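 Further: secreted streptokinase activity via plasminogen activation per viability signal from cell pellet.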 The test is classed as functional, Streptococcus pyogenes M1 GAS.

A further test relates to Streptococcus. In words: GAS UMAA2166 growth inhibition – luminescence, BacTiterGlo, counter-screen for streptokinase expression inhibitor project, dose response (AID 1915).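 Further: potency for reduction of bacterial viability or growth.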 The test is classed as functional, organism-based.
Test [5] in a line: fluconazole-exposed Candida albicans growth modulators – fluorescence, retest, confirmation (AID 2467). Type of test: functional, cell-based.
The nature of test [6]: NIH-3T3 fibroblast cytotoxicity, dose response, cytotoxicity control, cell-based, fluorescence, Alamar Blue, secondary assay (AID 2327).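 Further: NIH-3T3 mouse fibroblasts cultured with fluconazole at 8 µg/mL.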 The test is classed as functional. On the technique in general: The colour change of resazurin is a common sign of viable cells or microbes.
Another test deals with Cytochrome P450 2C19 (Homo sapiens, UniProt P33261). The test can be described thus: Cytochrome panel assay with activity outcomes. Panel member name: p450-cyp2c19 Compounds with AC50 equal or less than 10 uM are considered active. The test is classed as functional. The note with it: read-out: AC50.
Sequence of Cytochrome P450 2C19 (P33261 whole entry): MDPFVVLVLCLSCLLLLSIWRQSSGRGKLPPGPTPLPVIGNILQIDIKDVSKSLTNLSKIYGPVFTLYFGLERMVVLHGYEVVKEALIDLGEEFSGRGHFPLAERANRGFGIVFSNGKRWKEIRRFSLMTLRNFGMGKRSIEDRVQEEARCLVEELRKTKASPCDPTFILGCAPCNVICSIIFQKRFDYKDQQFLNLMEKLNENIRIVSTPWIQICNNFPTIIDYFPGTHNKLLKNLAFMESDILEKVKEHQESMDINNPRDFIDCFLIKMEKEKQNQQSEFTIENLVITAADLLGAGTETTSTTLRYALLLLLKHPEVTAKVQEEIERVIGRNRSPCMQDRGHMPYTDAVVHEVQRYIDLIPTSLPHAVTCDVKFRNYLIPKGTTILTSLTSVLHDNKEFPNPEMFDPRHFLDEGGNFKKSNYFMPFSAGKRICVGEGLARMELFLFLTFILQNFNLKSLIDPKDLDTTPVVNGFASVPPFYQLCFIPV
The target in a further test is Cytochrome P450 2D6 (Homo sapiens, UniProt P10635).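 Further: CYP2D6 member of a cytochrome P450 panel assay.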
Sequence of Cytochrome P450 2D6 (P10635 whole entry): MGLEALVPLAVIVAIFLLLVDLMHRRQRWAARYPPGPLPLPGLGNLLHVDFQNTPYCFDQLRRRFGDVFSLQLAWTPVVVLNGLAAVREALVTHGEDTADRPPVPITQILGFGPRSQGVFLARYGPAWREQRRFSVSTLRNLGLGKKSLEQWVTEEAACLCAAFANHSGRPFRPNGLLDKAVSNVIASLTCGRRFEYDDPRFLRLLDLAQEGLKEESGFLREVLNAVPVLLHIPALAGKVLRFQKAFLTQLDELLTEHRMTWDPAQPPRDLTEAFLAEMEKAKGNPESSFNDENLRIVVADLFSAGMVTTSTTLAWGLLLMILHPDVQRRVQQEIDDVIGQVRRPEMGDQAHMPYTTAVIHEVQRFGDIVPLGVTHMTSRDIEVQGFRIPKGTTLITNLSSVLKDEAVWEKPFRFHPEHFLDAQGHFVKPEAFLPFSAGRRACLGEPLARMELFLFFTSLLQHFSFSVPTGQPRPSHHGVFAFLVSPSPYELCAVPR
Test [7] concerns the target T2, RNA-binding protein pos-1 (Caenorhabditis elegans, UniProt G5EF15).
T2 sequence (G5EF15 whole entry): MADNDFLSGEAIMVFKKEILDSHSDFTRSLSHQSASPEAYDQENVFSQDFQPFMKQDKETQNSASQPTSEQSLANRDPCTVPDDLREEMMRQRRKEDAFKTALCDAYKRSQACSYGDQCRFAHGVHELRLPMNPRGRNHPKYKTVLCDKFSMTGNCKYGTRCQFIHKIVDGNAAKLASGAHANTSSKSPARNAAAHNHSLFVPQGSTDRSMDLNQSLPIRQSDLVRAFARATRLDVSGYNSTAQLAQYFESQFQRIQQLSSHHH
The test can be described thus: disruptors of C. elegans POS-1 RNA interaction – biochemical, fluorescence polarization, dose response (AID 1964).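 Further: purified POS-1 fused to maltose binding protein made in E. coli; potency of compounds blocking POS-1 binding to fluorescent RNA.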

The target of test [8] is T3, Zinc finger protein mex-5 (Caenorhabditis elegans, UniProt Q9XUB2).
T3 sequence (Q9XUB2 whole entry): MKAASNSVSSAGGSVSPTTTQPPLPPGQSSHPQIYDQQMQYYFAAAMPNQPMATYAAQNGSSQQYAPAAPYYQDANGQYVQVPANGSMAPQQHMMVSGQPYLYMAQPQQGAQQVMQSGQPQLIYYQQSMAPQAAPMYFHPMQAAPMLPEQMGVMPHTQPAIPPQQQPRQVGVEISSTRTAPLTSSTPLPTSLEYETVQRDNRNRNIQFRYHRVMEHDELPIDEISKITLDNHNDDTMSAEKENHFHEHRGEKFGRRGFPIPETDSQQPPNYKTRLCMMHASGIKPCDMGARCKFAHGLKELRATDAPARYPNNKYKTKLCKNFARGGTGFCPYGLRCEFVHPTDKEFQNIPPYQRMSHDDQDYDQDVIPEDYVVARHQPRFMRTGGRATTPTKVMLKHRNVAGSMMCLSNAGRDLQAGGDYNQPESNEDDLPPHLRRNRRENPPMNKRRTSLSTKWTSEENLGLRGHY
In words: potency of MEX-5 RNA-binding blockers – biochemical, C. elegans, fluorescence polarization, dose response (AID 1960).

In the next test the target is Cytochrome P450 2C9 (Homo sapiens, UniProt P11712).
Sequence of Cytochrome P450 2C9 (P11712 whole entry): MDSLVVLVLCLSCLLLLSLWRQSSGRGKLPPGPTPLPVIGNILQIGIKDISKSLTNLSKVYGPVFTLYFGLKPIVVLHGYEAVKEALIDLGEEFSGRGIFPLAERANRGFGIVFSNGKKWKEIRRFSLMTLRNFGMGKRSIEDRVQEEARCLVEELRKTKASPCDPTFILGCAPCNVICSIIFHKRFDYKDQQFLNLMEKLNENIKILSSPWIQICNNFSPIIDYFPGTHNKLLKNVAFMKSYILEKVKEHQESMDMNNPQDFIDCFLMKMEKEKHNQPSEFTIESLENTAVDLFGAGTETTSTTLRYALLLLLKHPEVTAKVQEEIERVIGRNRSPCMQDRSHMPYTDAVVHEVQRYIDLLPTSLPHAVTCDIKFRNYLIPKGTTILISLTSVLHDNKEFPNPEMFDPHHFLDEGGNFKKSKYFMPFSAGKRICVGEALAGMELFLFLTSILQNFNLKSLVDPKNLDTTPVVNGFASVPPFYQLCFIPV
A short description of the next test: cells. Type of test: functional.
Test [9] in a line: viability of uninfected HEp-2 cells – cell-based, HTS, cytotoxicity control for RSV inhibitor project, dose response (AID 2410). The test is classed as functional. The conditions noted are these: human respiratory syncytial virus.

The source made the active and inactive calls.

With `Cc1cc(C)c(S(=O)(=O)N(C)CC(=O)NC2CCCC2)c(C)c1`, the EC50 in [1], in test [2] and in test [3] was > 120 µM (not active) throughout.
`COc1cc(C(=O)NC(=S)N(CCc2ccccc2)CCc2ccccc2)cc(OC)c1OC`: the EC50 was 0.525 µM (active) in [4]; > 150 µM (not active) at Streptokinase A; 17.9 µM (active) with Streptococcus; 12.2 µM (active) in test [1]; 4.2 µM (active) in test [5]; > 120 µM (not active) in [2]. The EC50 in [3] was 10.6 µM (active); in [6] it was 28.6 µM (active).
On to `COc1ccc2c(c1)c(CC(=O)Nc1cccc(S(N)(=O)=O)c1)c(C)n2C(=O)c1ccc(Cl)cc1`, for which the results for the EC50 (in test [4]; at Streptokinase A; in the test with Streptococcus) were 5.48 µM (active), > 150 µM (not active) and > 50 µM (not active), respectively.
The matching figures for `Cc1ccccc1N1CCN(C(=O)CCN2C(=O)c3ccccc3C2=O)CC1`: > 150 µM (not active), > 150 µM (not active) and > 150 µM (not active).
For `Cc1cccc(OCC(=O)Nc2ccncc2)c1` the same measures were > 150 µM (not active), > 150 µM (not active) and > 150 µM (not active).
The matching figures for `CC(C)(O)c1[nH]c2cc(F)ccc2c1C(C)(C)O`: 2.05 µM (active), > 150 µM (not active) and 8.02 µM (active).
`CCCN1CC=C2C(C#N)=C(N)C(C#N)(C#N)C(c3cc(OC)ccc3OC)C2C1` (stereo not drawn): the half-maximal activity concentration (AC50) was 14.1 µM (inconclusive) on Cytochrome P450 2C19, 15.8 µM (inconclusive) on Cytochrome P450 2D6 and 7.94 µM (inconclusive) at Cytochrome P450 2C9. Besides, the EC50 is 27.9 µM (active) in [7] and 25.5 µM (active) in test [8].
For `CN(Cc1ccc(OC(F)F)cc1)Cc1nc2c(Br)cc(Br)cc2c(=O)[nH]1`, the EC50 at Streptokinase A is 29.4 µM (active).
Regarding `CC1C(=O)C(C)C(c2ccc(Cl)cc2)NC1c1ccc(Cl)cc1` (stereo not drawn), the EC50 in test [1] was 15.7 µM (active); in test [2], 13.8 µM (active); in test [3], 17.1 µM (active).
For the molecule `O=C(CC1CCCC1)OCn1nnc2ccccc2c1=O`, the IC50 in the test “cells” is 11.1 µM (active).
For the molecule `Nc1[nH]nc(C2CC2)c1N=Nc1ccc(Cl)c(Cl)c1`, the values for the EC50 (in [4]; on Streptokinase A; with Streptococcus) were 4.36 µM (active), 17 µM (active) and > 150 µM (not active), respectively. Also, the CC50 in [9] is 17.5 µM (active).
With `O=C(CN(Cc1ccc(F)cc1)C(=O)C1CSC(=O)C1)NC1CCCCC1` (stereo not drawn), the EC50 in test [1], in test [2] and in test [3] was > 120 µM (not active) in each case.
As to `COc1ccc(/C=C/C(=O)NC(=S)NNC(=O)c2ccco2)cc1OC`, the EC50 was 3.65 µM (active) in [4], > 150 µM (not active) at Streptokinase A and 25.4 µM (active) in the test with Streptococcus.
With `C1CCCCCC2(CCCCC1)OCC(CN1CCOCC1)O2` (stereo not drawn), the EC50 in [1], in [2] and in test [3] was > 120 µM (not active) in each case.
As to `COc1cccc(OC(=O)c2cc3ccccc3oc2=O)c1`, in “cells”, the IC50 is > 50 µM (active).
Regarding `COC(=O)[C@H]1[C@H](CCc2ccccc2)NC(=O)N(Cc2ccccc2)[C@@H]1C`, the EC50 on Streptokinase A and with Streptococcus was > 150 µM (not active) each time.
Regarding `COC(=O)C1(C(C[N+](=O)[O-])c2ccc(C)cc2)C(=O)NCC1c1ccco1` (stereo not drawn), the EC50 in test [4] was 8.44 µM (active); on Streptokinase A, > 150 µM (inconclusive); in the test with Streptococcus, 76.6 µM (active).
For `COc1cccc(C(=O)N2C(C(=O)O)CSC2c2ccccc2Cl)c1` (stereo not drawn) the same measures were > 150 µM (not active), > 150 µM (not active) and > 150 µM (not active).
As to `O=C(Nc1nnc(-c2ccc(Br)cc2)o1)c1cccc(N2C(=O)CCC2=O)c1`, the EC50 in [4] was 4.43 µM (active); at Streptokinase A it was > 150 µM (not active); in the test with Streptococcus it was 14.1 µM (active).
For `O=C(NCc1ccc2c(c1)OCO2)C(=O)NCC1OCCN1S(=O)(=O)c1ccc(Br)cc1` (stereo not drawn) the same measures were > 150 µM (not active), > 150 µM (inconclusive) and > 150 µM (not active).
Regarding `CCC1CN(C(=O)N2CCC(C(=O)NCc3ccc(C)o3)CC2)c2ccccc2O1` (stereo not drawn), the EC50 in [1], in test [2] and in test [3] was > 120 µM (not active) each time.
Regarding `Nc1nc(NCc2ccco2)nc(N2CCCCCC2)c1[N+](=O)[O-]`, the EC50 in [4] was 2.82 µM (active); on Streptokinase A, > 150 µM (not active); with Streptococcus it was 7.75 µM (active).
Take `CN(C(=O)COC(=O)c1ccc([N+](=O)[O-])cc1Cl)C1CCCCC1`: in the test “cells”, the IC50 is 6.26 µM (active).
Regarding `COc1ccc(O)c2c(=O)c3c(OC)cc4c(c3oc12)C1C=COC1O4` (stereo not drawn), in [1], the EC50 was 19.6 µM (active).
With `Cc1cc(C)n(-c2nc(SCC(=O)O)c3c4c(sc3n2)CCCC4)n1`, the EC50 was 8.77 µM (active) in test [4], > 150 µM (not active) at Streptokinase A and > 150 µM (not active) with Streptococcus.
Take `O=C(CN1C(=O)COc2ccc(S(=O)(=O)N3CCCCC3)cc21)NCc1ccc(F)cc1`: the 50% effective concentration (EC50) (in test [4]; on Streptokinase A; in the test on Streptococcus) was > 150 µM (not active) each time.
`CC/C(=N\NC(=S)Nc1cccc(C)c1)c1ccccc1`: the EC50 was 12.3 µM (active) in test [4], 21.3 µM (active) on Streptokinase A and > 50 µM (not active) in the test with Streptococcus.
For `COc1cccc(/C=N/n2c(N)nc3ccccc32)c1OC` the same measures were > 150 µM (not active), > 150 µM (not active) and > 150 µM (not active).
Regarding `C/C(=N/NS(=O)(=O)c1ccc(Cl)cc1)c1cccc(NC(=O)c2ccc(Cl)cc2Cl)c1`, the EC50 in test [4] is 3.99 µM (active); at Streptokinase A, 23.4 µM (active); in the test with Streptococcus, 47.6 µM (active).
Regarding `COc1ccc(C(=O)/N=C2\SC3CS(=O)(=O)CC3N2Cc2ccccc2)cc1OC` (stereo not drawn), the figures for the EC50 in [1], in test [2] and in [3] were 25.4 µM (active), 26.2 µM (active) and > 120 µM (not active), respectively.
Consider `C/C(CCc1oc2ccc(Cl)cc2c1-c1ccc(C)o1)=N\O`, for which the EC50 in test [7] and in test [8] was > 300 µM (not active) each time. Besides, the CC50 in [9] was 37.9 µM (active).
Regarding `COc1ccc(N2C(N)=NC(N)=NC2(C)C)cc1`, the EC50 in test [1] is > 120 µM (not active); in test [2] it was 10 µM (active); in test [3] it was 7.02 µM (active).

(Values after ChEMBL document CHEMBL1201862, “PubChem BioAssay data set” (2004).)
